Where two headings read alike, the source gives them in different places.
How the values were obtained:
NCI-H226 = test: SRB anticancer assay, non-small lung; assay type: cell-based, human; settings: Homo sapiens, NCI-H226, 48 h
T-47D = test: SRB anticancer assay, breast; assay type: cell-based; settings: Homo sapiens, T47D, 48 h
MCF7 = test: SRB anticancer assay, breast; assay type: cell-based, human; settings: Homo sapiens, MCF7, 48 h
Breast cancer cell lines = test: SRB anticancer assay, panel result; assay type: cell-based, human; settings: for mean graph midpoint value (MG_MID) of log10 TGI: total inhibition of net cell growth; for CC50 / GI50: Homo sapiens; for CC50: 50% net cell death, read-out: mean graph midpoint value (MG_MID) of Log10 LC50 (converted)
Description: (§1) The compounds were evaluated for anticancer activity against sixty human cancer cells derived from nine cancer types (leukemia cell line, non-small-cell lung cell line, colon cell line, CNS cell line, melanoma cell line, ovarian cell line, prostate cell line, renal cancer cell line and breast cancer cell line) as shown in Table 1. For each compound, dose response curves for each cell line were measured at a minimum of five concentrations at 10 fold dilutions. A protocol of 48 h continuous drug exposure was used and a sulforhodamine B (SRB) protein assay was used to estimate cell viability or growth.

[1] = tested on: Prostate cancer cell lines; test: SRB anticancer assay, panel result; assay type: cell-based, human; settings: for LC50 / GI50: Homo sapiens; for LC50: 50% net cell death, read-out: mean graph midpoint value (MG_MID) of Log10 LC50 (converted); for mean graph midpoint value (MG_MID) of log10 TGI: total inhibition of net cell growth
Description: as §1

[2] = tested on: Leukemia cancer cell lines; test: SRB anticancer assay, panel result; assay type: cell-based, human; settings: for LC50 / GI50: Homo sapiens; for LC50: 50% net cell death, read-out: mean graph midpoint value (MG_MID) of Log10 LC50 (converted); for mean graph midpoint value (MG_MID) of log10 TGI: total inhibition of net cell growth
Description: as §1

[3] = tested on: Non-small cell lung cancer cell lines; test: SRB anticancer assay, panel result; assay type: cell-based, human; settings: for LC50 / GI50: Homo sapiens; for LC50: 50% net cell death, read-out: mean graph midpoint value (MG_MID) of Log10 LC50 (converted); for mean graph midpoint value (MG_MID) of log10 TGI: total inhibition of net cell growth
Description: as §1

Colon cancer cell lines = test: SRB anticancer assay, panel result; assay type: cell-based, human; settings: for mean graph midpoint value (MG_MID) of log10 TGI: total inhibition of net cell growth; for LC50 / GI50: Homo sapiens; for LC50: 50% net cell death, read-out: mean graph midpoint value (MG_MID) of Log10 LC50 (converted)
Description: as §1

[4] = tested on: Melanoma cancer cell lines; test: SRB anticancer assay, panel result; assay type: cell-based, human; settings: for LC50 / GI50: Homo sapiens; for LC50: 50% net cell death, read-out: mean graph midpoint value (MG_MID) of Log10 LC50 (converted); for mean graph midpoint value (MG_MID) of log10 TGI: total inhibition of net cell growth
Description: as §1

CNS cancer cell lines = test: SRB anticancer assay, panel result; assay type: cell-based, human; settings: for mean graph midpoint value (MG_MID) of log10 TGI: total inhibition of net cell growth; for CC50 / GI50: Homo sapiens; for CC50: 50% net cell death, read-out: mean graph midpoint value (MG_MID) of Log10 LC50 (converted)
Description: as §1

[5] = tested on: Ovarian cancer cell lines; test: SRB anticancer assay, panel result; assay type: cell-based, human; settings: for LC50 / GI50: Homo sapiens; for LC50: 50% net cell death, read-out: mean graph midpoint value (MG_MID) of Log10 LC50 (converted); for mean graph midpoint value (MG_MID) of log10 TGI: total inhibition of net cell growth
Description: as §1

Renal cancer cell lines = test: SRB anticancer assay, panel result; assay type: cell-based, human; settings: for CC50 / GI50: Homo sapiens; for CC50: 50% net cell death, read-out: mean graph midpoint value (MG_MID) of Log10 LC50 (converted); for mean graph midpoint value (MG_MID) of log10 TGI: total inhibition of net cell growth
Description: as §1

TK-10 = test: SRB anticancer assay, renal; assay type: cell-based, human; settings: Homo sapiens, TK-10, 48 h
MDA-MB-231/ATCC = test: SRB anticancer assay, breast; assay type: cell-based, human; settings: Homo sapiens, MDA-MB-231, 48 h, 48 h, read-out: GI50
SF-295 = test: SRB anticancer assay, CNS; assay type: cell-based, human; settings: Homo sapiens, SF-295, 48 h
LOX IMVI = test: SRB anticancer assay, melanoma; assay type: cell-based, human; settings: Homo sapiens, 48 h
SK-MEL-5 = test: SRB anticancer assay, melanoma; assay type: cell-based, human; settings: Homo sapiens, SK-MEL-5, 48 h
OVCAR-3 = test: SRB anticancer assay, ovarian; assay type: cell-based, human; settings: Homo sapiens, OVCAR-3, 48 h
NCI-H23 = test: SRB anticancer assay, non-small lung; assay type: cell-based, human; settings: Homo sapiens, NCI-H23, 48 h
SF-268 = test: SRB anticancer assay, CNS; assay type: cell-based, human; settings: Homo sapiens, SF-268, 48 h
HCT-116 = test: SRB anticancer assay, colon; assay type: cell-based, human; settings: Homo sapiens, HCT-116, 48 h
A498 = test: SRB anticancer assay, renal; assay type: cell-based, human; settings: Homo sapiens, A498, 48 h
UO-31 = test: SRB anticancer assay, renal; assay type: cell-based, human; settings: Homo sapiens, UO-31, 48 h
MALME-3M = test: SRB anticancer assay, melanoma; assay type: cell-based, human; settings: Homo sapiens, Malme-3M, 48 h
DU-145 = test: SRB anticancer assay, prostate; assay type: cell-based, human; settings: Homo sapiens, DU-145, 48 h
OVCAR-4 = test: SRB anticancer assay, ovarian; assay type: cell-based, human; settings: Homo sapiens, OVCAR-4, 48 h
A549/ATCC = test: SRB anticancer assay, non-small lung; assay type: cell-based, human; settings: Homo sapiens, 48 h
[6] = Breast panel, read-out: mean graph midpoint value (MG_MID) of Log10 GI50 (converted)
[7] = six breast cancer cell lines, exposure at least 48 h, read-out: GI50, range over the panel
[8] = Prostate panel, read-out: mean graph midpoint value (MG_MID) of Log10 GI50 (converted)
[9] = Leukemia panel, read-out: mean graph midpoint value (MG_MID) of Log10 GI50 (converted)
[10] = six leukemia cancer cell lines, exposure at least 48 h, read-out: GI50, range over the panel
[11] = Non-small cell lung panel, read-out: mean graph midpoint value (MG_MID) of Log10 GI50 (converted)
[12] = nine Non-small cell lung cancer cell lines, exposure at least 48 h, read-out: GI50, range over the panel
[13] = Colon panel, read-out: mean graph midpoint value (MG_MID) of Log10 GI50 (converted)
[14] = seven colon cancer cell lines, exposure at least 48 h, read-out: GI50, range over the panel
[15] = Melanoma panel, read-out: mean graph midpoint value (MG_MID) of Log10 GI50 (converted)
[16] = nine melanoma cancer cell lines, exposure at least 48 h, read-out: GI50, range over the panel
[17] = CNS panel, read-out: mean graph midpoint value (MG_MID) of Log10 GI50 (converted)
[18] = six CNS cancer cell lines, exposure at least 48 h, read-out: GI50, range over the panel
[19] = Ovarian panel, read-out: mean graph midpoint value (MG_MID) of Log10 GI50 (converted)
[20] = seven ovarian cancer cell lines, exposure at least 48 h, read-out: GI50, range over the panel
[21] = Renal panel, read-out: mean graph midpoint value (MG_MID) of Log10 GI50 (converted)
[22] = eight renal cancer cell lines, exposure at least 48 h, read-out: GI50, range over the panel
[23] = MDA-MB-231/ATCC (row head MDA-MB-)

COc1cc(OC)cc(-c2cncn2-c2ccc(-c3nc4cc(OC)cc(OC)c4s3)cc2)c1 [Compound 6d, 2-(4-(5-(3,5-Dimethoxyphenyl)-1H-imidazol-1-yl)phenyl)-5,7-dimethoxybenzo[d]thiazole]
GI50 (NCI-H226): 18.5 µM
GI50 (T-47D): 3.17 µM
GI50 (MCF7): 3.82 µM
mean graph midpoint value (MG_MID) of log10 TGI (Breast cancer cell lines; Breast panel): >−4.0
CC50 (Breast cancer cell lines; Breast panel): > 100 µM
GI50 (Breast cancer cell lines; [6]): 4.57 µM
GI50 (Breast cancer cell lines; [7]): 3.09 to 9.01 µM
LC50 ([1]; Prostate panel): > 100 µM
GI50 [1, 8]: > 100 µM
mean graph midpoint value (MG_MID) of log10 TGI ([1]; Prostate panel): >−4.0
LC50 ([2]; Leukemia panel): > 100 µM
GI50 [2, 9]: 3.31 µM
GI50 [2, 10]: 3.22 to 3.3 µM
mean graph midpoint value (MG_MID) of log10 TGI ([2]; Leukemia panel): >−4.0
LC50 ([3]; Non-small cell lung panel): > 100 µM
GI50 [3, 11]: 10.5 µM
GI50 [3, 12]: 2.49 to 18.5 µM
mean graph midpoint value (MG_MID) of log10 TGI ([3]; Non-small cell lung panel): −4.05
mean graph midpoint value (MG_MID) of log10 TGI (Colon cancer cell lines; Colon panel): >−4.0
LC50 (Colon cancer cell lines; Colon panel): > 100 µM
GI50 (Colon cancer cell lines; [13]): 13.2 µM
GI50 (Colon cancer cell lines; [14]): 4.52 to 4.93 µM
LC50 ([4]; Melanoma panel): > 100 µM
GI50 [4, 15]: 10.5 µM
GI50 [4, 16]: 1.53 to 9.69 µM
mean graph midpoint value (MG_MID) of log10 TGI ([4]; Melanoma panel): >−4.0
mean graph midpoint value (MG_MID) of log10 TGI (CNS cancer cell lines; CNS panel): −4.19
CC50 (CNS cancer cell lines; CNS panel): > 100 µM
GI50 (CNS cancer cell lines; [17]): 7.94 µM
GI50 (CNS cancer cell lines; [18]): 2.4 to 11.3 µM
LC50 ([5]; Ovarian panel): > 100 µM
GI50 [5, 19]: 7.94 µM
GI50 [5, 20]: 2.87 to 14.5 µM
mean graph midpoint value (MG_MID) of log10 TGI ([5]; Ovarian panel): >−4.0
CC50 (Renal cancer cell lines; Renal panel): > 100 µM
GI50 (Renal cancer cell lines; [21]): 12.9 µM
GI50 (Renal cancer cell lines; [22]): 2.13 to 16.8 µM
mean graph midpoint value (MG_MID) of log10 TGI (Renal cancer cell lines; Renal panel): >−4.0
GI50 (TK-10): 16.8 µM
GI50 (MDA-MB-231/ATCC; [23]): 9.01 µM
GI50 (MDA-MB-231/ATCC; row head printed 231/ATCC (second line of MDA-MB-231/ATCC)): 5.02 µM
GI50 (SF-295): 2.4 µM
GI50 (LOX IMVI): 5.48 µM
GI50 (SK-MEL-5): 3.29 µM
GI50 (OVCAR-3): 2.87 µM
GI50 (NCI-H23): 10.3 µM
GI50 (SF-268): 11.3 µM
GI50 (HCT-116): 4.93 µM
GI50 (A498): 3.15 µM

COc1cc(OC)c2sc(-c3ccc(-n4cncc4-c4cc(OC)c(OC)c(OC)c4)cc3)nc2c1 [Compound 6f, 5,7-Dimethoxy-2-(4-(5-(3,4,5-trimethoxyphenyl)-1H-imidazol-1-yl)phenyl)benzo[d]thiazole]
GI50 (UO-31): 2.27 µM
GI50 (T-47D): 3.27 µM
GI50 (MCF7): 3.88 µM
mean graph midpoint value (MG_MID) of log10 TGI (Breast cancer cell lines; Breast panel): >−4.0
CC50 (Breast cancer cell lines; Breast panel): > 100 µM
GI50 (Breast cancer cell lines; [6]): 3.8 µM
GI50 (Breast cancer cell lines; [7]): 3.27 to 5.23 µM
LC50 ([1]; Prostate panel): > 100 µM
GI50 [1, 8]: 16.2 µM
GI50 ([1]; two prostate cancer cell lines (PC-3, DU-145), exposure at least 48 h, read-out: GI50, range over the panel): 2.54 µM
mean graph midpoint value (MG_MID) of log10 TGI ([1]; Prostate panel): >−4.0
LC50 ([2]; Leukemia panel): > 100 µM
GI50 [2, 9]: 3.89 µM
GI50 [2, 10]: 3.24 to 5.39 µM
mean graph midpoint value (MG_MID) of log10 TGI ([2]; Leukemia panel): >−4.0
LC50 ([3]; Non-small cell lung panel): > 100 µM
GI50 [3, 11]: 11.2 µM
GI50 [3, 12]: 3.27 to 75.9 µM
mean graph midpoint value (MG_MID) of log10 TGI ([3]; Non-small cell lung panel): >−4.0
mean graph midpoint value (MG_MID) of log10 TGI (Colon cancer cell lines; Colon panel): >−4.0
LC50 (Colon cancer cell lines; Colon panel): > 100 µM
GI50 (Colon cancer cell lines; [13]): 7.41 µM
GI50 (Colon cancer cell lines; [14]): 3.92 to 5.96 µM
LC50 ([4]; Melanoma panel): > 100 µM
GI50 [4, 15]: 6.61 µM
GI50 [4, 16]: 2.46 to 7.91 µM
mean graph midpoint value (MG_MID) of log10 TGI ([4]; Melanoma panel): >−4.0
mean graph midpoint value (MG_MID) of log10 TGI (CNS cancer cell lines; CNS panel): >−4.0
CC50 (CNS cancer cell lines; CNS panel): > 100 µM
GI50 (CNS cancer cell lines; [17]): 15.8 µM
GI50 (CNS cancer cell lines; [18]): 4.15 to 8.59 µM
LC50 ([5]; Ovarian panel): > 100 µM
GI50 [5, 19]: 16.6 µM
GI50 [5, 20]: 3.25 to 5.87 µM
mean graph midpoint value (MG_MID) of log10 TGI ([5]; Ovarian panel): >−4.0
CC50 (Renal cancer cell lines; Renal panel): > 100 µM
GI50 (Renal cancer cell lines; [21]): 6.61 µM
GI50 (Renal cancer cell lines; [22]): 1.83 to 9.4 µM
mean graph midpoint value (MG_MID) of log10 TGI (Renal cancer cell lines; Renal panel): >−4.0
GI50 (TK-10): 9.4 µM
GI50 (MDA-MB-231/ATCC; [23]): 3.51 µM
GI50 (SF-295): 4.42 µM
GI50 (LOX IMVI): 5.4 µM
GI50 (SK-MEL-5): 2.46 µM
GI50 (OVCAR-3): 3.26 µM
GI50 (NCI-H23): 6.15 µM
GI50 (MALME-3M): 3.73 µM
GI50 (DU-145): > 100 µM
GI50 (HCT-116): 3.92 µM
GI50 (A498): 1.83 µM
GI50 (OVCAR-4): 3.25 µM
GI50 (A549/ATCC): 6.16 µM
